Measurements from patent publication US20250134851A1 (priority 2021, published 2025).

Tests used:
[1] = system: hyperhidrosis (hand sweating); set-up: species or system human; conditions: in vivo
[2] = system: skin wrinkles under the eyes; set-up: species or system human; conditions: in vivo
[3] = type: physicochemical; conditions: pH 7
PC12 cells = type: cell-based
[4] = system: sweating area of hind paw of ICR mice; conditions: mouse, in vivo, 0.8 mg/kg

Compound | Sweat weight [1] [%] | Reduction of skin wrinkle dermal density (%) [2] [%] | Residual amount [3] | inhibition of acetylcholine release (PC12 cells) | sweating area relative to control [4]
COc1cc(-c2oc3cc(O)cc(O)c3c(=O)c2O)cc(O)c1O [Laricitrin, laricitrin] | 52 | 38 | <<10% | – | –
CC(=O)Oc1c(-c2cc(O)c(O)c(O)c2)oc2cc(O)cc(O)c2c1=O [3-Acetyl-Myricetin, 3-acetyl-myricetin] | 28 | 78 | ≈100% | inhibit acetylcholine release | improved effect to a degree that the previously reported myricetin derivatives cannot provide
COc1cc(-c2oc3cc(O)cc(O)c3c(=O)c2O)cc(OC)c1O [Syringetin, syringetin] | 53 | 37 | <<10% | – | –
COc1cc(O)c2c(=O)c(OC)c(-c3cc(OC)c(OC)c(OC)c3)oc2c1 [Combretol, combretol] | 56 | 36 | <<10% | – | –
O=c1c(O)c(-c2cc(O)c(O)c(O)c2)oc2cc(O)cc(O)c12 [Myricetin, myricetin] | 55 | 48 | <<10% | – | –
